Legend:
Format in all cases: cell-based, human
A172 (glioblastoma) = experiment: Study 2: CellTiter-Glo viability, DMEM without sodium pyruvate; conditions: BOHB 0/4/12 mM, 3 d
Experimental: (§1) Cell lines established from human colon carcinoma (HCT15, NCI-H508 and COLO205), renal cell carcinoma (769-P, 786-O and RCC4) and glioblastoma (LN-18, A-172 and U-118 MG) were selected for the analysis. All cell lines were obtained from American Type Culture Collection (ATCC, LGC standards, UK) except for RCC4 and HCT15 that was purchased from Sigma-Aldrich (Merck, Germany). In addition, primary human renal cell carcinoma (RCC) cells isolated from patient nephrectomies were included in the study. […]
(§2) Optimal seeding density was determined for each cell line in 96 well plates according to the “Protocol for optimizing cell seeding densities to ensure Log-phase growth”. […] Cover the plate. • Incubate the plate overnight at 37° C., 5% CO2. • Add 50 μL of fresh media to the plate wells to achieve a final volume of 200 µL and incubate for 72 h at 37° C., 5% CO2. • Measure viability using Cell Titer Glo assay according to manufacturer's protocol. • Plot log cell number against luminescence intensity to identify the concentration of cells at which log growth is achieved.
(§3) CellTiter-Glo Luminescent cell viability assay (Promega) was used as a readout of viability.
(§4) For each cell line, optimal number of cells as determined above were seeded into 96-well plates on day 0. […]

[1] = system: RCC4 (renal cell carcinoma); experiment: as above; conditions: BOHB 0/4/12 mM, 3 d
Experimental: as §1, §2, §3, §4

glioma cell line A172 = experiment: Example 2: BOHB and Acac added alone or in combination to Medium A-C (CellTiter-Glo); conditions: for growth, repetition experiments 2-6: BOHB or Acac added separately, FIG. 9, inconsistent results; for number of cells compared to 8 mM LiCl control: 8 mM Acac
Experimental: (§5) Stock solutions of DL-β-Hydroxybutyric acid sodium salt (H6501, Sigma Aldrich) and Lithium Acetoacetate (A8509, Sigma Aldrich) were prepared in water, sterile filtered, aliquoted and stored at −20° C. Lithium Chloride (L7026, Sigma Aldrich) was used as a control for the addition of Lithium in the Li-Acac.
(§6) CellTiter-Glo Luminescent cell viability assay (Promega) was used as a readout of cell numbers according to the manufacturers' instructions. In experiments shown in FIGS. 7-8, double plates were seeded and treated. One set of plates was used for collection of medium for lactate measurement (see below) and the CellTiterGlo-assay. The other set of plates was frozen at −80° C. at the end of the experiment. The frozen plates were intended for the CyQuant cell proliferation assay (Thermo Fisher) that measures the amount of DNA per well. Analysis of the amounts of cells by both CellTiterGlo and CyQuant assays would ensure that effects of the culture conditions on viability or growth rate would not be concealed by simultaneous changes in ATP-levels per cell.
(§7) Next, it was decided to also include Acac in the study and analyze the viability of cells cultured in the presence of BOHB and Acac alone or in combination in Medium A-C. The experiment was performed at 21% and 5% O2. The experiments were made with glioma cell lines A172 and U118MG.
(§8) Being a chiral molecule, BOHB exists as two enantiomers, D- and L-BOHB. D-BOHB is normally produced and metabolized in humans. The BOHB-salt used in this study contains a mixture of 50:50 of D- and L-BOHB. In order to ensure a high presence of the active D-form, the total concentration of BOHB added was increased to 16 mM, giving a level of 8 mM D-BOHB. To keep the total concentration of active ketones constant, 8 mM Acac was used, and for the combination of both ketones, the levels were adjusted to 4 mM Acac and 8 mM BOHB (containing 4 mM D-BOHB).
(§9) The Acac available for in vitro use is in the form of a lithium salt. Since lithium itself can affect the viability of cancer cells [Cohen-Harazi et al., Anticancer Res 2020; 40:3831-3837], 8 mM LiCl was used as a control for the 8 mM Acac data point and 4 mM LiCl was used as a control for the 4 mM Acac/8 mM BOHB data.
(§10) At the end of the experiment, the culture media from each well was collected and frozen to enable later determination of lactate levels as a measurement of the metabolic state. In addition, double experiments were performed, where one set of plates were frozen for later quantification of cell numbers using the CyQuant proliferation assay, and the amounts of cells in the other set were analyzed by CellTiterGlo viability assay.

glioma cell line U118MG = experiment: as above; conditions: for number of cells compared to 8 mM LiCl control: 8 mM Acac
Experimental: as §5, §6, §7, §8, §9, §10

[2] = system: renal carcinoma cell line RCC4; experiment: Example 2: BOHB and Acac added alone or in combination to Medium B-C (CellTiter-Glo); conditions: nutrient restricted Medium C
Experimental: as §5, §6
Being a chiral molecule, BOHB exists as two enantiomers, D- and L-BOHB. D-BOHB is normally produced and metabolized in humans. The BOHB-salt used in this study contains a mixture of 50:50 of D- and L-BOHB. […]

[3] = Medium A, 16 mM BOHB alone, both normoxia and hypoxia, 3 days
[4] = Medium C, 16 mM BOHB, both 21 and 5% O2
[5] = Medium A, both normoxia and hypoxia

CC(O)CC(=O)[O-].[Na+] (racemic) [BOHB, DL-β-Hydroxybutyric acid sodium salt]
proliferation of cells with increase in the concentration of BOHB (A172 (glioblastoma)): suppresses the proliferation of cells | proliferation of cells with increase in the concentration of BOHB [1]: suppresses the proliferation of cells | growth inhibitory effect (glioma cell line A172; [3]): no growth inhibitory effect | number of cells, % of the amount in Medium B without BOHB (glioma cell line A172; Medium B, hypoxic): approximately 70% | number of cells, % compared to C-medium without BOHB (glioma cell line A172; [4]): around 30% | growth, repetition experiments 2-6 (glioma cell line A172; Medium C): trend of reduced growth | growth inhibitory effect (glioma cell line U118MG; [3]): no growth inhibitory effect | number of cells, % compared to C-medium without BOHB (glioma cell line U118MG; [4]): around 30% | increased sensitivity to high levels of BOHB or a combination of BOHB and Acac [2]: not found

CC(=O)CC(=O)[O-].[Li+] [Acac, Lithium Acetoacetate]
number of cells compared to 8 mM LiCl control (glioma cell line A172; [5]): did not reduce the number of cells further | number of cells compared to 8 mM LiCl control (glioma cell line A172; Medium B, only at 21% O2): reduced the number of cells significantly | amounts of cells compared to 8 mM LiCl control (glioma cell line A172; Medium C, 8 mM Acac alone): did not significantly reduce the amounts of cells | growth, repetition experiments 2-6 (glioma cell line A172; Medium C): trend of reduced growth | number of cells compared to 8 mM LiCl control (glioma cell line U118MG; [5]): did not reduce the number of cells further | number of cells compared to 8 mM LiCl control (glioma cell line U118MG; Medium B, only at 21% O2): reduced the number of cells significantly | amounts of cells compared to 8 mM LiCl control (glioma cell line U118MG; Medium C, 8 mM Acac alone): did not significantly reduce the amounts of cells

Reference: patent US20250009691A1, “DIALYSIS FLUID COMPRISING KETONE BODIES FOR THE TREATMENT OF CANCER” (GAMBRO LUNDIA AB, priority 2021, published 2025)
